Measured values taken from PubChem BioAssay (NCI).
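All cell lines were grown in 96-well plates and treated with compound for 48 hours. GI50 marks 50% less growth. At the TGI there is no net growth.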

Experiments:
Test in all cases: NCI anticancer screen, dose series, 48 h
[1] = tested on: LOX IMVI melanoma
[2] = tested on: A498 renal
[3] = tested on: IGROV1 ovarian
[4] = tested on: OVCAR-4 ovarian
[5] = tested on: A549 NSCLC
[6] = tested on: M14 melanoma
[7] = tested on: MDA-MB-231 breast
[8] = tested on: HS 578T breast
[9] = tested on: MCF7 breast
[10] = tested on: K-562 leukemia
[11] = tested on: NCI-H23 lung
[12] = tested on: UO-31 renal
[13] = tested on: HT29 colon
[14] = tested on: SK-MEL-2 melanoma
[15] = tested on: U251 CNS
[16] = tested on: HCT-15 colon
[17] = tested on: NCI-H522 lung
[18] = tested on: HOP-62 NSCLC
[19] = tested on: NCI-H226 lung
[20] = tested on: DU-145 prostate
[21] = tested on: MOLT-4 leukemia
[22] = tested on: CCRF-CEM leukemia
[23] = tested on: UACC-62 melanoma
[24] = tested on: TK-10 renal
[25] = tested on: UACC-257 melanoma
[26] = tested on: SR leukemia
[27] = tested on: SF-539 CNS
[28] = tested on: ACHN renal
[29] = tested on: SF-295 CNS
[30] = tested on: 786-0 renal
[31] = tested on: KM12 colon
[32] = tested on: SF-268 CNS
[33] = tested on: HCC-2998 colon
[34] = tested on: HCT-116 colon
[35] = tested on: SW-620 colon
[36] = tested on: BT-549 breast
[37] = tested on: PC-3 prostate
[38] = tested on: NCI/ADR-RES ovarian
[39] = tested on: MALME-3M melanoma
[40] = tested on: T-47D breast
[41] = tested on: OVCAR-8 ovarian
[42] = tested on: SK-MEL-5 melanoma
[43] = tested on: SNB-19 CNS
[44] = tested on: OVCAR-3 ovarian
[45] = tested on: EKVX NSCLC
[46] = tested on: RPMI-8226 leukemia
[47] = tested on: SN12C renal
[48] = tested on: SNB-75 CNS
[49] = tested on: NCI-H460 lung
[50] = tested on: HL-60(TB) leukemia
[51] = tested on: OVCAR-5 ovarian
[52] = tested on: COLO 205 colon
[53] = tested on: SK-MEL-28 melanoma
[54] = tested on: CAKI-1 renal
[55] = tested on: MDA-MB-435
[56] = tested on: HOP-92 NSCLC

SMILES: CO/N=C1/c2cc(OC)ccc2-c2c(NOC)nc3ccccc3c21
- GI50 [1]: 26.7 µM
- TGI [1]: > 100 µM
- GI50 [2]: 16.1 µM
- TGI [2]: 36.9 µM
- GI50 [3]: 18 µM
- TGI [3]: 44.2 µM
- GI50 [4]: 27.3 µM
- TGI [4]: > 100 µM
- GI50 [5]: 16 µM
- TGI [5]: 37.3 µM
- GI50 [6]: > 100 µM
- TGI [6]: > 100 µM
- GI50 [7]: 12.6 µM
- TGI [7]: 40.1 µM
- GI50 [8]: 18 µM
- TGI [8]: 51 µM
- GI50 [9]: 27.1 µM
- TGI [9]: > 100 µM
- GI50 [10]: 65.7 µM
- TGI [10]: > 100 µM
- GI50 [11]: 28.6 µM
- TGI [11]: 97.9 µM
- GI50 [12]: 35.4 µM
- TGI [12]: > 100 µM
- GI50 [13]: 42 µM
- TGI [13]: > 100 µM
- GI50 [14]: 24.7 µM
- TGI [14]: 88.5 µM
- GI50 [15]: 13 µM
- TGI [15]: 25.7 µM
- GI50 [16]: 32.6 µM
- TGI [16]: > 100 µM
- GI50 [17]: 26.6 µM
- TGI [17]: > 100 µM
- GI50 [18]: 24.6 µM
- TGI [18]: 39.4 µM
- GI50 [19]: 35.1 µM
- TGI [19]: > 100 µM
- GI50 [20]: 29.2 µM
- TGI [20]: > 100 µM
- GI50 [21]: 47 µM
- TGI [21]: > 100 µM
- GI50 [22]: 70.1 µM
- TGI [22]: > 100 µM
- GI50 [23]: 27.5 µM
- TGI [23]: > 100 µM
- GI50 [24]: 16 µM
- TGI [24]: 39.7 µM
- GI50 [25]: 28.2 µM
- TGI [25]: > 100 µM
- GI50 [26]: 38.7 µM
- TGI [26]: > 100 µM
- GI50 [27]: 21.9 µM
- TGI [27]: 52.6 µM
- GI50 [28]: 14.3 µM
- TGI [28]: 31.3 µM
- GI50 [29]: 32.8 µM
- TGI [29]: > 100 µM
- GI50 [30]: 17.7 µM
- TGI [30]: 34.2 µM
- GI50 [31]: 37.5 µM
- TGI [31]: > 100 µM
- GI50 [32]: 41.6 µM
- TGI [32]: > 100 µM
- GI50 [33]: 35.6 µM
- TGI [33]: > 100 µM
- GI50 [34]: 22.6 µM
- TGI [34]: 49.2 µM
- GI50 [35]: 60.1 µM
- TGI [35]: > 100 µM
- GI50 [36]: 21.9 µM
- TGI [36]: 49.6 µM
- GI50 [37]: 21.3 µM
- TGI [37]: 88.2 µM
- GI50 [38]: 53 µM
- TGI [38]: > 100 µM
- GI50 [39]: 0.103 µM
- TGI [39]: 23.7 µM
- GI50 [40]: 41.2 µM
- TGI [40]: > 100 µM
- GI50 [41]: 10.3 µM
- TGI [41]: 37 µM
- GI50 [42]: 13.9 µM
- TGI [42]: 36 µM
- GI50 [43]: 17.5 µM
- TGI [43]: 53 µM
- GI50 [44]: 49.2 µM
- TGI [44]: > 100 µM
- GI50 [45]: 31.7 µM
- TGI [45]: > 100 µM
- GI50 [46]: 40.6 µM
- TGI [46]: > 100 µM
- GI50 [47]: 29.5 µM
- TGI [47]: > 100 µM
- GI50 [48]: 14.6 µM
- TGI [48]: 40.2 µM
- GI50 [49]: 29.5 µM
- TGI [49]: > 100 µM
- GI50 [50]: 28.3 µM
- TGI [50]: > 100 µM
- GI50 [51]: 22 µM
- TGI [51]: 71.6 µM
- GI50 [52]: 41.3 µM
- TGI [52]: > 100 µM
- GI50 [53]: 85.2 µM
- TGI [53]: > 100 µM
- GI50 [54]: > 100 µM
- TGI [54]: > 100 µM
- GI50 [55]: > 100 µM
- TGI [55]: > 100 µM
- GI50 [56]: 16 µM
- TGI [56]: 46.2 µM
